# Experimental data reported in patent US20040028609A1, “Two-dimensionally quantified image method for distinguishing and quantifying over-growing tissue or the like” (priority 2000, published 2004).
# Like-named read-outs stand apart in the source and are kept apart here.
# Columns and labels:
# [1] = Fate of intravenously administered [2-^14C] thymidine in rats; assay type: in vivo; conditions: intravenous
# Experimental: Extensive studies by the present inventors led to the discovery that when “thymidine” is intravenously administered to rats, the thymidine administered is utilized only in the S phase of the cell cycle, and more precisely, within 3 minutes after the administration of the thymidine. This observation is based on the findings obtained using a “thymidine” with the “2” carbon position within its structure labeled with ^14C and tracking the fate of the administered thymidine. It was discovered that thymidine not incorporated during the cell division is rapidly metabolized in the liver, leucocytes, and the like and mostly excreted out of the body as carbon dioxide gas. Based on these findings, the present inventors discovered that a thymidine with “2” carbon position labeled with ^14C is an extremely important marker for specifying the frequency of dividing cells in vivo and for localizing its site(s) within the body. It was also discovered that a (1,3-N) thymidine, obtained by attaching a fluorescent compound to the nitrogen atoms at 1,3-positions of the thymidine, can also be used as the labeled thymidine.
# [2] = tested on: excised jejunum, basal layer of the intestinal tract mucosa; test: [2-^14C] thymidine incorporation in excised, cultured jejunum (in vitro system); assay type: cell-based, Wistar rat; conditions: 5 μCi injected into excised jejunum, cultured 10 minutes at 37° C.
# Experimental: Next, the jejunum of a healthy Wistar male rat at seven weeks of age was used. The part of the abdomen was opened under ethyl ether anesthesia, and the jejunum of about 2-4 cm in length was excised. […] Then, the specimen was immediately frozen in liquid nitrogen and sectioned using a microtome to obtain frozen sections. Semi-microautoradiographs were prepared from these sections.
# [3] = tested on: jejunum, basal layer of the intestinal mucosa; test: [2-^14C] thymidine injected into exposed jejunum, semi-microautoradiograph; assay type: in vivo, Wistar rat; conditions: 5 μCi injected into exposed jejunum, 5 minutes
# Experimental: The specimen used was the jejunum from a healthy 7-week old Wistar rat, male. Under ethyl ether anesthesia, the abdomen was opened to expose the jejunum, which was marked with methylene blue. […] Frozen sections were prepared with a microtome, and a semi-microautoradiographs were obtained.
# [4] = BALB/c, mouse, in vivo
# Experimental: The back of BALB/c nude mice was inoculated with a 10^7 Hu09 cells (human osteosarcoma) grown in culture. 3 weeks later, animals with granulation tissue with a collagen layer were submitted for the experiment. […] 50 μm thick whole body sections cut longitudinally were prepared using a Leica Macrocut. The sections were stored in a sealed container and lyophilized. The dried sections in contact with a Fuji imaging plate were exposed in a dark box, and the IP was then processed with the Fuji BAS2000 analyzer to generate a digital image (FIG. 1).
# The specimen was then placed in contact with IP, and 16 hours later the data was converted into a computer image for analysis.
# [5] = Experimental: After administration of the aforementioned ^90Y into the mouse tail vein the systemic distribution was studied by the following experiments. The animals used were those obtained from the source as used for the BALB/c (body weight 25 g) described in Examples 1 and 2 above. After administration of an aqueous 0.5 μCi (18.5 kBq) ^90YCl citrate solution per male mouse in the tail vein, analysis was conducted over time at 5 time points: at 10 minutes, 1, 6, 24, and 48 hours. The animals were sacrificed under an ether anesthesia, and the whole body autoradiographs were prepared using with the same procedure as that used in Example 1 and Example 2 (FIGS. 7, 8, 9, 10, 11).
# [6] = tested on: tumor (T); test: Effect of ^90Y radiation on mitosis, [2-^14C] thymidine incorporation as marker of DNA replication (macroautoradiography): tumor; assay type: in vivo, BALB/c mice; further: key: −: no effect; ±: Slight inhibition; +: Decrease in function; ++: Definite decrease in function; +++: No incorporation of ^14C marker in DNA replication
# [7] = tested on: bone marrow (B); conditions: for effect of ^90Y radiation on [2-^14C] thymidine incorporation (suppression of mitosis), B: bone marrow
# Experimental: (§1) ^90YCl at the three levels, 0.5 μCi (18.5 kBq), 2 μCi (74 kBq) or 10 μCi (370 kBq), was injected intravenously into the tail of male BALB/c mice in groups of 6 mice per group (a total of 18 mice). […] The animals were sacrificed one hour later under ether anesthesia, and the macroautoradiographs were prepared as described in Example 1. […] FIG. 12 is a microautoradiograph of the bone marrow, showing the bone marrow from a mouse sacrificed 1 hour after [2-^14C] was administered, which was 48 hours after the ^90Y administration.
# (§2) On the sections were placed five sheets of 10 μm thick aluminum foil, and this was brought into contact with IP to generate only the ^90Y image. […] If the image of the two radiation nuclides is to be obtained simultaneously, one can place an industrial X-ray film in contact with said section, followed by five sheets of aluminum foil, and then the IP; these are then stored in a dark box. After about 7 days, the X-ray film is taken out and photographically processed by the usual method to produce the image, while the IP is processed by Fuji BAS2000 for computer processing of the images. This method provides ^14C image on the industrial X-ray film. This method also gives a ^90Y image on the IP.
# [8] = tested on: digestive tract mucosa (m)
# Experimental: as §1, §2
# [9] = 0.5 μCi ^90Y i.v., 1 hr after ^90Y
# [10] = 0.5 μCi ^90Y i.v., 6 hr after ^90Y
# [11] = 0.5 μCi ^90Y i.v., 24 hr after ^90Y
# [12] = 0.5 μCi ^90Y i.v., 48 hr after ^90Y
# [13] = 0.5 μCi ^90Y i.v., 72 hr after ^90Y
# [14] = 0.5 μCi ^90Y i.v., 168 hr after ^90Y
# [15] = 2 μCi ^90Y i.v., 1 hr after ^90Y
# [16] = 2 μCi ^90Y i.v., 6 hr after ^90Y
# [17] = 2 μCi ^90Y i.v., 24 hr after ^90Y
# [18] = 2 μCi ^90Y i.v., 48 hr after ^90Y
# [19] = 2 μCi ^90Y i.v., 72 hr after ^90Y
# [20] = 2 μCi ^90Y i.v., 168 hr after ^90Y
# [21] = 10 μCi ^90Y i.v., 1 hr after ^90Y
# [22] = 10 μCi ^90Y i.v., 6 hr after ^90Y
# [23] = 10 μCi ^90Y i.v., 24 hr after ^90Y
# [24] = 10 μCi ^90Y i.v., 48 hr after ^90Y
# [25] = 10 μCi ^90Y i.v., 72 hr after ^90Y
# [26] = 10 μCi ^90Y i.v., 168 hr after ^90Y
smiles,measurement,setting,value
Cc1cn([C@H]2C[C@H](O)[C@@H](CO)O2)c(=O)[nH]c1=O [[2-^14C] thymidine],time after administration within which thymidine is utilized (S phase),[1],≤ 3 min
same,incorporation in the basal layer of the intestinal tract mucosa (semi-microautoradiograph),[2],substantially darkened images
same,incorporation in the basal layer of the intestinal mucosa (semi-microautoradiograph),[3],darkened images were clearly recorded
same,time to incorporation into DNA after injection,[4],less than 3 minutes
same,"time by which the ^14C component is completely excreted out of other areas, except the bone and bone marrow",[4]; iv,≤ 1 h
"[Cl][90Y]([Cl])[Cl] [^90Y, ^90YCl3]","accumulation in the skeletal bones, share of the total dose","[5]; 0.5 μCi ^90YCl citrate solution, tail vein, IP images at 10 minutes to 48 hours",≥ 70%
same,"^90Y remaining in the liver, spleen, and kidney","[5]; 0.5 μCi, tail vein, 24 hours after administration",only a slight residue
same,"localization in skin, digestive tract epithelium, and vascular endothelial cells","[5]; 0.5 μCi, tail vein, image analysis",did not localize
same,^90Y image at the site of the osteosarcoma HU09,"[5]; whole body autoradiograph, compared with bones",blackened image completely equivalent to the extent seen in the bones
same,"effect of ^90Y radiation on [2-^14C] thymidine incorporation (suppression of mitosis), T",[6]; [9],−
same,"effect of ^90Y radiation on [2-^14C] thymidine incorporation (suppression of mitosis), T",[6]; [10],−
same,"effect of ^90Y radiation on [2-^14C] thymidine incorporation (suppression of mitosis), T",[6]; [11],−
same,"effect of ^90Y radiation on [2-^14C] thymidine incorporation (suppression of mitosis), T",[6]; [12],+
same,"effect of ^90Y radiation on [2-^14C] thymidine incorporation (suppression of mitosis), T",[6]; [13],+
same,"effect of ^90Y radiation on [2-^14C] thymidine incorporation (suppression of mitosis), T",[6]; [14],±
same,"effect of ^90Y radiation on [2-^14C] thymidine incorporation (suppression of mitosis), T",[6]; [15],−
same,"effect of ^90Y radiation on [2-^14C] thymidine incorporation (suppression of mitosis), T",[6]; [16],+
same,"effect of ^90Y radiation on [2-^14C] thymidine incorporation (suppression of mitosis), T",[6]; [17],++
same,"effect of ^90Y radiation on [2-^14C] thymidine incorporation (suppression of mitosis), T",[6]; [18],++
same,"effect of ^90Y radiation on [2-^14C] thymidine incorporation (suppression of mitosis), T",[6]; [19],++
same,"effect of ^90Y radiation on [2-^14C] thymidine incorporation (suppression of mitosis), T",[6]; [20],+
same,"effect of ^90Y radiation on [2-^14C] thymidine incorporation (suppression of mitosis), T",[6]; [21],±
same,"effect of ^90Y radiation on [2-^14C] thymidine incorporation (suppression of mitosis), T",[6]; [22],++
same,"effect of ^90Y radiation on [2-^14C] thymidine incorporation (suppression of mitosis), T",[6]; [23],+++
same,"effect of ^90Y radiation on [2-^14C] thymidine incorporation (suppression of mitosis), T",[6]; [24],+++
same,"effect of ^90Y radiation on [2-^14C] thymidine incorporation (suppression of mitosis), T",[6]; [25],+++
same,"effect of ^90Y radiation on [2-^14C] thymidine incorporation (suppression of mitosis), T",[6]; [26],+++
same,"effect of ^90Y radiation on [2-^14C] thymidine incorporation (suppression of mitosis), B",[7]; [9],−
same,"effect of ^90Y radiation on [2-^14C] thymidine incorporation (suppression of mitosis), B",[7]; [10],−
same,"effect of ^90Y radiation on [2-^14C] thymidine incorporation (suppression of mitosis), B",[7]; [11],−
same,"effect of ^90Y radiation on [2-^14C] thymidine incorporation (suppression of mitosis), B",[7]; [12],+
same,"effect of ^90Y radiation on [2-^14C] thymidine incorporation (suppression of mitosis), B",[7]; [13],+
same,"effect of ^90Y radiation on [2-^14C] thymidine incorporation (suppression of mitosis), B",[7]; [14],±
same,"effect of ^90Y radiation on [2-^14C] thymidine incorporation (suppression of mitosis), B",[7]; [15],−
same,"effect of ^90Y radiation on [2-^14C] thymidine incorporation (suppression of mitosis), B",[7]; [16],+
same,"effect of ^90Y radiation on [2-^14C] thymidine incorporation (suppression of mitosis), B",[7]; [17],++
same,"effect of ^90Y radiation on [2-^14C] thymidine incorporation (suppression of mitosis), B",[7]; [18],++
same,"effect of ^90Y radiation on [2-^14C] thymidine incorporation (suppression of mitosis), B",[7]; [19],++
same,"effect of ^90Y radiation on [2-^14C] thymidine incorporation (suppression of mitosis), B",[7]; [20],+
same,"effect of ^90Y radiation on [2-^14C] thymidine incorporation (suppression of mitosis), B",[7]; [21],±
same,"effect of ^90Y radiation on [2-^14C] thymidine incorporation (suppression of mitosis), B",[7]; [22],++
same,"effect of ^90Y radiation on [2-^14C] thymidine incorporation (suppression of mitosis), B",[7]; [23],+++
same,"effect of ^90Y radiation on [2-^14C] thymidine incorporation (suppression of mitosis), B",[7]; [24],+++
same,"effect of ^90Y radiation on [2-^14C] thymidine incorporation (suppression of mitosis), B",[7]; [25],+++
same,"effect of ^90Y radiation on [2-^14C] thymidine incorporation (suppression of mitosis), B",[7]; [26],+++
same,level that showed cytotoxic effects near the sites of ^90Y deposition,[7]; bone / bone marrow,about 5 μCi/25 g
same,activity of the lymphocytes in the bone marrow to degrade [2-^14C] thymidine,"[7]; first group, 0.5 μCi administration",only a slight decrease
same,"effect of ^90Y radiation on [2-^14C] thymidine incorporation (suppression of mitosis), m",[8]; [9],−
same,"effect of ^90Y radiation on [2-^14C] thymidine incorporation (suppression of mitosis), m",[8]; [10],−
same,"effect of ^90Y radiation on [2-^14C] thymidine incorporation (suppression of mitosis), m",[8]; [11],−
same,"effect of ^90Y radiation on [2-^14C] thymidine incorporation (suppression of mitosis), m",[8]; [12],−
same,"effect of ^90Y radiation on [2-^14C] thymidine incorporation (suppression of mitosis), m",[8]; [13],−
same,"effect of ^90Y radiation on [2-^14C] thymidine incorporation (suppression of mitosis), m",[8]; [14],−
same,"effect of ^90Y radiation on [2-^14C] thymidine incorporation (suppression of mitosis), m",[8]; [15],−
same,"effect of ^90Y radiation on [2-^14C] thymidine incorporation (suppression of mitosis), m",[8]; [16],−
same,"effect of ^90Y radiation on [2-^14C] thymidine incorporation (suppression of mitosis), m",[8]; [17],−
same,"effect of ^90Y radiation on [2-^14C] thymidine incorporation (suppression of mitosis), m",[8]; [18],−
same,"effect of ^90Y radiation on [2-^14C] thymidine incorporation (suppression of mitosis), m",[8]; [19],−
same,"effect of ^90Y radiation on [2-^14C] thymidine incorporation (suppression of mitosis), m",[8]; [20],−
same,"effect of ^90Y radiation on [2-^14C] thymidine incorporation (suppression of mitosis), m",[8]; [21],−
same,"effect of ^90Y radiation on [2-^14C] thymidine incorporation (suppression of mitosis), m",[8]; [22],−
same,"effect of ^90Y radiation on [2-^14C] thymidine incorporation (suppression of mitosis), m",[8]; [23],−
same,"effect of ^90Y radiation on [2-^14C] thymidine incorporation (suppression of mitosis), m",[8]; [24],−
same,"effect of ^90Y radiation on [2-^14C] thymidine incorporation (suppression of mitosis), m",[8]; [25],−
same,"effect of ^90Y radiation on [2-^14C] thymidine incorporation (suppression of mitosis), m",[8]; [26],−
